Experimental data from patent US20210113560A1, “METHOD OF TREATING FIBROTIC DISEASE” (BLADE THERAPEUTICS, INC., priority 2018, published 2021).
Peptide text beside a SMILES is read from it. * marks the point of attachment. Cbz = O=C(OCc1ccccc1)*

Experiments:
CAPN2 = target: T1, CAPN2 (Homo sapiens, UniProt P17655); assay: Activity based probe (ABP) off-rate assay of CAPN2 inhibitors, SDS-PAGE readout; assay type: binding; details: t1/2=0.693/k from first order decay fit; complex diluted ten-fold into 10 uM ABP; time points 0-24 hours
T1 sequence (P17655 20-700 limits assumed): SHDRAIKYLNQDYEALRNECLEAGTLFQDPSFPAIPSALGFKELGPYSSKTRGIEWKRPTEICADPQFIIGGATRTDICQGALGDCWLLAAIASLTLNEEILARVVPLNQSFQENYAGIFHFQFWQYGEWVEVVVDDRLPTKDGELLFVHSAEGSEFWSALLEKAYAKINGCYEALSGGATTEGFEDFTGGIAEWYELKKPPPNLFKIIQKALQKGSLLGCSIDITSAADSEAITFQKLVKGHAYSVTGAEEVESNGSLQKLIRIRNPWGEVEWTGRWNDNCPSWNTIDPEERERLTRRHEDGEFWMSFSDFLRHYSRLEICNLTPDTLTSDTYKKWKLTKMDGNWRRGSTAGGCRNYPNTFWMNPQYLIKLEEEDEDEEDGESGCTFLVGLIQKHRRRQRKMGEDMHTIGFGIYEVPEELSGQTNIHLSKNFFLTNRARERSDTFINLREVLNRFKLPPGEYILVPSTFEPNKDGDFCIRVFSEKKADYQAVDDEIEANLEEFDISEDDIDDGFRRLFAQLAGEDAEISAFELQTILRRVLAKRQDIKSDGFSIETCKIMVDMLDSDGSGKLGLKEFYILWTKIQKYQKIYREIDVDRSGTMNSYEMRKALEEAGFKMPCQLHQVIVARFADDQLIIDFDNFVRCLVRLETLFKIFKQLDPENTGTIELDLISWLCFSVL
T1 sequence (P04632 1-268 partner): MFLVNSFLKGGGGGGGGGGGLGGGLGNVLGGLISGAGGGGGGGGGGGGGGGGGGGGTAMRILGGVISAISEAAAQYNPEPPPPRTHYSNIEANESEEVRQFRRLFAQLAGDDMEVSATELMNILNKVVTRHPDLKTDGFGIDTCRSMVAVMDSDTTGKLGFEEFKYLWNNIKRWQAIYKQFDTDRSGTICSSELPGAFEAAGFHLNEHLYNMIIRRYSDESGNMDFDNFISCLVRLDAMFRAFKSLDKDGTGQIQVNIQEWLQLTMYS
Description: FIG. 2: Dissociation of Compound 10 from calpain 2 (CAPN2). Complexes of Compound 10 with CAPN2 were generated, followed by dilution into an excess of Compound 29 (a probe for unbound CAPN2). Samples were taken at the time points (lanes 1-6 for 0, 1, 2, 4, 7 and 24 hr respectively) and analyzed by gel electrophoresis to determine the amount of Compound 29 probe incorporation. Lanes 7 and 8 reflect negative and positive controls for probe labeling, respectively. The dissociation rate and half-life for the Compound 10-CAPN2 complex was then calculated.
A fluorescently labeled irreversible activity based probe (ABP) was used to measure off rates of CAPN2 inhibitors as follows. The ABP molecule contains a fluoro-methyl ketone warhead that irreversibly reacts with the active site cysteine nucleophile of CAPN enzymes. ABP is also labeled with the Alexa 647 fluorophore which allows for sensitive quantitation of the CAPN2.ABP adduct.
The assay is typically performed by pre-incubating 2 uM CAPN2 with […] test inhibitor for 30 minutes in assay buffer (50 mM Tris-HCl, 100 mM NaCl, 2 mM CaCl2, 1 mM DTT, 0.02% Brij-35, pH7.4). This incubation mixture (containing the CAPN2.inhibitor complex) is diluted ten-fold into the same assay buffer containing 10 uM ABP. This is time zero at which an aliquot is immediately withdrawn and quenched by adding denaturing SDS-PAGE loading buffer and heating at 95° C. for 5 minutes. Additional aliquots are typically withdrawn and quenched at time points of 0.5, 1, 2, 4, 7, 24 hours. Quenched samples are stored frozen at −80° C. until SDS-PAGE analysis.
For a given test inhibitor, all time points are run on the same gel with the following two control samples. An assay minimum control is prepared by pre-incubating 2 uM CAPN2 in assay buffer for 1 hour. The incubation mixture is diluted, ten-fold into the same assay buffer containing 10 uM ABP, reacted for 30 minutes and quenched. After the initial 1 hour incubation, the CAPN2 enzyme is autolytically degraded and should generate little to no signal. An assay maximum control is prepared by adding 10 uM ABP to 0.2 uM CAPN2 in assay buffer and incubating for 30 minutes and quenching.
After SDS-PAGE, the gel is scanned using a LAS4000 ImageQuant platform to quantify the Alexa 647 intensity at ˜75 kDa (molecular weight of full length activated CAPN2). The minimum and maximum controls on each gel are used to calculate percentage of test compound bound at each time point. […] Using the equation t1/2=0.693/k, the off rate (k) is converted to and reported as CAPN2.inhibitor complex half-life (t1/2).

calpain 2 (CAPN2) = target: T2, calpain 2 (CAPN2) (Homo sapiens, UniProt P17655); assay: Dilution of enzyme-inhibitor complex into substrate, reactivation over time (FIG. 1); assay type: biochemical; details: relative to unbound CAPN2 control; absence of excess compound
T2 sequence (P17655 20-700 limits assumed): T1 sequence (P17655 20-700 limits assumed)
T2 sequence (P04632 1-268 partner): T1 sequence (P04632 1-268 partner)
Description: (§1) FIG. 1: Dissociation of Compound 10 from calpain 2 (CAPN2). Complexes of Compound 10 with either CatK or CAPN2 were generated, followed by dilution into substrate-containing assay wells to initiate data collection. Reactivation of the target enzymes due to dissociation of the enzyme-inhibitor complexes was observed as a function of time. […] CAPN2 control (upper dashed line). Thus, inhibition of CAPN2 by Compound 10 is retained even in the absence of excess Compound 10. Further, this effect is selective and provides a basis for specific action of Compound 10 against CAPN2.

CatK = target: T3, CatK (Homo sapiens, UniProt P43235); assay: as above; assay type: biochemical; details: compared to unbound CatK control
T3 sequence (P43235 115-329): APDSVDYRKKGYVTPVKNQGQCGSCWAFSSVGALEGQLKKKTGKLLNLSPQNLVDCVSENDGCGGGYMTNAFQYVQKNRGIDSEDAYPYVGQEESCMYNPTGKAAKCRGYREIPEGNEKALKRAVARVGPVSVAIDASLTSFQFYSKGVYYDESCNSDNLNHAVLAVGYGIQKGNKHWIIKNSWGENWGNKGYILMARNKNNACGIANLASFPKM
Description: as §1

Compound	Half-life of Compound-CAPN2 Complex (CAPN2) [h]	Retention of CAPN2 inhibition after dilution of the complex (calpain 2 (CAPN2))	Reactivation of CatK after dilution of the CatK-compound complex (CatK)
O=C(NC1CC1)C(=O)C(Cc1ccccc1)NC(=O)[C@H]1CCC(=O)N1Cc1ccccc1 (some centres unmarked) [Compound 9]	0.083	–	–
Cn1cc(C(=O)NC(Cc2ccccc2)C(=O)C(N)=O)c(-c2cccc(F)c2)n1 (centres unmarked) [Compound 13]	0.633	–	–
Cc1cc(C(=O)N[C@@H](Cc2ccccc2)C(=O)C(N)=O)n(-c2ccccc2)n1 [Compound 21]	2.7	–	–
Cc1cc(C(=O)NC(Cc2ccccc2)C(=O)C(N)=O)n(-c2ccccn2)n1 (centres unmarked) [Compound 5]	0.467	–	–
NC(=O)C(=O)C(Cc1ccccc1)NC(=O)c1nsnc1-c1ccccc1F (centres unmarked) [Compound 18]	5.5	–	–
Cn1cc(C(=O)N[C@@H](Cc2ccccc2)C(=O)C(N)=O)c(-c2ccccc2)n1 [Compound 26]	0.483	–	–
NC(=O)C(=O)C(Cc1ccccc1)NC(=O)c1nsnc1-c1cccc(F)c1 (centres unmarked) [Compound 19]	2.8	–	–
Cn1cc(C(=O)NC(Cc2ccccc2)C(=O)C(N)=O)c(-c2ccccc2F)n1 (centres unmarked) [Compound 16]	0.867	–	–
NC(=O)C(=O)C(Cc1ccccc1)NC(=O)c1cn(C(F)F)nc1-c1cccc2cnccc12 (centres unmarked) [Compound 1]	2.8	–	–
Cc1nc(-c2ccccc2F)c(C(=O)NC(Cc2ccccc2)C(=O)C(N)=O)o1 (centres unmarked) [Compound 10]	2.7	inhibition is retained	almost an immediate reactivation
O=CC(Cc1ccccc1)NC(=O)c1nsnc1-c1ccccc1 (centres unmarked) [Compound 7]	1.05	–	–
NC(=O)C(=O)[C@H](Cc1ccccc1)NC(=O)c1cnoc1-c1ccccc1 [Compound 25]	1.6	–	–
NC(=O)C(=O)C(Cc1ccccc1)NC(=O)c1cn(C(F)F)nc1-c1ccccc1 (centres unmarked) [Compound 17]	2.1	–	–
Cc1nc(-c2ccccc2)c(C(=O)NC(Cc2ccccc2)C(=O)C(N)=O)o1 (centres unmarked) [Compound 14]	5.4	–	–
NC(=O)C(=O)C(Cc1ccccc1)NC(=O)c1c(C(F)(F)F)ccc(Cl)c1F (centres unmarked) [Compound 8]	2.4	–	–
Cc1nc(-c2cccc(F)c2)c(C(=O)NC(Cc2ccccc2)C(=O)C(N)=O)o1 (centres unmarked) [Compound 11]	3.53	–	–
NC(=O)C(=O)C(Cc1ccccc1)NC(=O)c1nsnc1-c1cccc2c1OC(F)(F)O2 (centres unmarked) [Compound 2]	9.63	–	–
CC(C)[C@H](NC(=O)OCc1ccccc1)C(=O)N[C@H](C=O)Cc1ccccc1 [Compound 28] (Cbz-Val-Phe-aldehyde)	3	–	–
NC(=O)C(=O)C(Cc1ccccc1)NC(=O)c1cn(C2CC2)nc1-c1ccccc1 (centres unmarked) [Compound 12]	0.333	–	–
NC(=O)C(=O)C(Cc1ccccc1)NC(=O)c1nsnc1-c1ccccc1 (centres unmarked) [Compound 24]	6.6	–	–
O=C(NC1CC1)C(=O)C(Cc1ccccc1)NC(=O)c1nsnc1-c1ccccc1 (centres unmarked) [Compound 6]	0.383	–	–
CC[C@H](NC(=O)[C@H](CC(C)C)NC(=O)OCc1ccccc1)C(=O)C(=O)NCc1cc(OC)cc(OC)c1 [Compound 23]	1	–	–

The next lines start with the values.

Half-life of Compound-CAPN2 Complex (CAPN2) [h]	Retention of CAPN2 inhibition after dilution of the complex (calpain 2 (CAPN2))	Reactivation of CatK after dilution of the CatK-compound complex (CatK)	Compound
0.65	–	–	Cn1cc(C(=O)NC(Cc2ccccc2)C(=O)C(N)=O)c(-c2cccc3cn[nH]c23)n1 (centres unmarked) [Compound 37]
2.32	–	–	NC(=O)C(=O)C(Cc1ccccc1)NC(=O)c1nsnc1-c1ccccn1 (centres unmarked) [Compound 32]
4.87	–	–	NC(=O)C(=O)C(Cc1ccccc1)NC(=O)c1nsnc1-c1cccc2c1OC(F)(F)O2 (centres unmarked) [Compound 31]
1.87	–	–	O=C(O)C(=O)C(Cc1ccccc1)NC(=O)c1nsnc1-c1ccccc1 (centres unmarked) [Compound 33]
0.9	–	–	CCN(CC)Cc1ccc(/C=C/c2ccccc2C(=O)NC(Cc2ccccc2)C(=O)C(N)=O)cc1 (centres unmarked) [Compound 27]
0.533	–	–	Cc1cncc(-c2nn(C(F)F)cc2C(=O)NC(Cc2ccccc2)C(=O)C(N)=O)c1 (centres unmarked) [Compound 39]
17.77	–	–	CC(C)C(NC(=O)OCc1ccccc1)C(=O)NC(Cc1ccccc1)C(=O)C(N)=O (centres unmarked) [Compound 30]
1.03	–	–	NC(=O)C(=O)C(Cc1ccccc1)NC(=O)c1nsnc1-c1cnccn1 (centres unmarked) [Compound 35]
0.75	–	–	Cc1c(F)cccc1-c1nsnc1C(=O)NC(Cc1ccccc1)C(=O)C(N)=O (centres unmarked) [Compound 36]
0.467	–	–	Cc1nc(-c2ccccc2F)c(C(=O)NC(Cc2ccccc2)C(=O)C(=O)O)o1 (centres unmarked) [Compound 40]
0.45	–	–	Cn1cc(C(=O)NC(Cc2ccccc2)C(=O)C(N)=O)c(-c2cccc3c2OC(F)(F)O3)n1 (centres unmarked) [Compound 41]
0.65	–	–	Cn1cc(C(=O)NC(Cc2ccccc2)C(=O)C(N)=O)c(-c2cccc3oc(=O)[nH]c23)n1 (centres unmarked) [Compound 38]
1.27	–	–	NC(=O)C(=O)C(Cc1ccccc1)NC(=O)c1nsnc1-c1ccncn1 (centres unmarked) [Compound 34]
7	–	–	CC(C)[C@@H](NC(=O)CCCNC(=O)CCCCCC1(C)C(/C=C/C=C/C=C2/N(CCCS(=O)(=O)O)c3ccccc3C2(C)C)=[N+](CCCS(=O)(=O)O)c2ccc(S(=O)(=O)O)cc21)C(=O)NC(Cc1ccccc1)C(=O)CF (some centres unmarked) [Compound 29]
